From US20200375996A1, “METHOD OF TREATING NEURODEGENERATIVE DISORDERS BY RESCUING ALPHA-SYNUCLEIN TOXICITY” (D.E. Shaw Research, LLC, priority 2015, published 2020) come the findings set out here.

SMILES strings stand for the structures.

One data set has as its system Carboxypeptidase Y (CPY). The experiment in a line: Western blot of Carboxypeptidase Y (CPY) trafficking. The class given is cell-based, yeast. The settings on record: FIG. 11D. As for the experimental part:
(§1) Protein analysis was performed in NoTox and HiTox strains with the compound treatment at indicated concentrations. Log phase CSM/2% raffinose cultures were induced with 2% galactose for 5 hours with DMSO or the compounds. Cultures were normalized to cell density and cell pellets prepared for SDS-PAGE. Cell pellets were boiled in SDS-loading dye for 15′, centrifuged, and resolved by 4-12% SDS-PAGE. CPY western blots were performed using culture conditions as described above. An anti-Cpy antibody (Invitrogen, A6428) was used at 1:5,000. Post-ER:ER ratios were quantitated using an IRDye800 secondary antibody (Li-Cor Odyssey, Rockland Immunochemicals) and scanned with the Li-Cor Odyssey imaging system. Significance was determined using a one-way ANOVA and Tukey's test of significance. From the same gel, total protein was detected by coomassie staining. Both blots and coomassie-stained gels were scanned using the Li-Cor Odyssey imaging system and quantitated. Significance was determined using a one-way ANOVA with Tukey's test of significance.

Another data set relates to WT control yeast strain. Kind of data set: Toxicity profile on WT control yeast strain (growth). Format: cell-based. The settings on record: FIGS. 9A-9B. As for the experimental part: Yeast Growth assays: Starting cultures for all dose-response assays were based on strains initially constructed in the lab to maintain homogeneity across experiments. All growth assays were carried out in 384 well format. Source plates were assembled in 96 well plates using multichannel pipettes to dilute rows in 1.6-fold serial dilutions of CSMGal. To these dilution series containing 2× final concentration of compound, 2×OD600 culture (in CSMGal) was dispensed with a multichannel pipette to achieve a final drug/culture mix with the desired OD600 and drug concentration. For WT yeast, the final starting OD600 was 0.01. For α-syn, the final starting OD600 was 0.02. Drug concentration ranges varied depending on efficacy, growth inhibition, and solubility in media. […] Plates were then read with a Tecan Saphire plate reader at OD600.
Raw OD600 values were transformed to “Relative Growth” in WT cells or “% Maximum Rescue” in α-syn experiments. […] All experimental data points were then calculated by (OD600Exp−OD600untreated/(OD600Max−OD600untreated)×100 to obtain rescue relative to maximum rescue observed. Dose-response curves were generated by nonlinear regression analysis using Prism Graphpad v. 6.0. In cases where the compounds began inhibiting growth, only points up to the maximum were used to fit the curve. Above that, points were directly connected and are always presented as dotted lines.

The next data set deals with Sna3-GFP. The experiment in a line: Immunoblot analysis of Sna3-GFP polyubiquitination in WT and α-syn cells. Format: cell-based, yeast. The settings on record: FIG. 11B. As for the experimental part: as §1
In WT Sna3-GFP cells, log phase CSMRaf cultures were shifted to galactose for 5 hours in the presence or absence of the compounds. Cell pellets were lysed in SDS-loading dye and Sna3-GFP cleavage monitored by Western blotting with an anti-GFP antibody. […]

Data set [1] concerns α-synuclein-expressing yeast. Kind of data set: α-synuclein toxicity rescue in yeast (growth, OD600). Format: cell-based. The settings on record: FIGS. 8A-8B. As for the experimental part:
Yeast Strains and culturing: Yeast strains expressing alpha-synuclein have been described in Cooper at. al, 2006. (Cooper A A, et al. Alpha-synuclein blocks ER-Golgi traffic and Rab1 rescues neuron loss in Parkinson's models. Science. 2006 Jul. 21; 313:324) Strains express multiple copies of alpha-synculein for galactose-inducible expression. […] Yeast were cultured in complete synthetic media (CSM) and an appropriate dropout (lacking histidine or uracil) to maintain plasmids if required. For galactose-induction experiments, overnight cultures were grown in CSM/2% glucose to saturation and diluted 1:20 into CSM/2% raffinose for ˜2 generations. Cultures were then diluted into CSM/2% galactose at an optimum OD600 for the experiment (see ‘Growth assays’).
Yeast Growth assays: Starting cultures for all dose-response assays were based on strains initially constructed in the lab to maintain homogeneity across experiments. All growth assays were carried out in 384 well format. Source plates were assembled in 96 well plates using multichannel pipettes to dilute rows in 1.6-fold serial dilutions of CSMGal. To these dilution series containing 2× final concentration of compound, 2×OD600 culture (in CSMGal) was dispensed with a multichannel pipette to achieve a final drug/culture mix with the desired OD600 and drug concentration. For WT yeast, the final starting OD600 was 0.01. For α-syn, the final starting OD600 was 0.02. Drug concentration ranges varied depending on efficacy, growth inhibition, and solubility in media. A Tecan EvoFreedom liquid handling robot was then used to transfer culture from 96 to 384 well format with each well being represented four times. Final well volume was 35 μL. Plates were then incubated in humidified containers at 30° C. for either 24 or 40 hours. Plates were then read with a Tecan Saphire plate reader at OD600.
Raw OD600 values were transformed to “Relative Growth” in WT cells or “% Maximum Rescue” in α-syn experiments. In WT cells, the well background was subtracted and all values were then normalized to 100% for the untreated condition. In α-syn rescue experiments, the well background was subtracted and the maximum rescue in the particular experiment was normalized to 100%.

Data set [2] relates to aSyn-expressing yeast cells. Kind of data set: Morphological analysis of aSyn-expressing yeast cells. The class given is cell-based. The note with it: 10 uM, galactose induction five hours, FIG. 10. As for the experimental part: Raffinose cultures of α-syn expressing yeast cells were grown up to the logarithmic phase in raffinose. Cultures were induced with galactose for five hours in the presence or absence of the indication concentration of the compounds. In the present example, the identified compounds were present at a concentration of 10 uM. Cells were centrifuged, media discarded, and then fixed with 4% paraformaldehyde in 1×PBS for 1 hr. The fixed culture was centrifuged, and the pellet resuspended in 0.4% paraformaldehyde in 1×PBS and kept at 4° C.

Data set [3] concerns K63 linkages in iPS derived human neurons. Kind of data set: K63-Ub linkages in human iPS derived neuronal cultures (immunoblot). The settings on record: 5 μM for 12 hours, FIG. 13A. Format: cell-based. As for the experimental part: (§2) Human HEK-293 or neuronal cells treated with the appropriate compounds, were washed twice with ice cold PBS and then 0.5 ml of Lysis buffer was added and cells were scraped off the 10 cm dish (1 ml for 15 cm).
(§3) Lysis buffer is 50 mM Tris/HCl pH 7.5, 1 mM EGTA, 1 mM EDTA, 0.5 or 1% (v/v) NP-40, 1 mM sodium orthovanadate, 50 mM NaF, 5 mM sodium pyrophosphate, 0.27 M sucrose, 10 mM sodium 2-glycerophosphate, 0.2 mM phenylmethylsulphonyl fluoride, 1 mM benzamidine, plus 100 mM iodoacetamide added fresh prior to lysis (weight powder, don't use a frozen stock solution) to inactivate deubiquitylase activities and add also pepstatin/aprotinin to inhibit proteases. Cell extracts were sonicated twice for 15 seconds each time and clarified by centrifugation at 14000 g for 15 min at 4° C. Supernatants were collected and filtered using a 0.45 uM MiniSart/Syringe. Next, protein concentrations were determined by Bradford procedure.
The avidity based K63 linkage sensor protein was based on Sims et. al, 2012. Briefly, avidity based K63 sensor Halo-fusion protein was expressed in an E. coli expression vector and covalently bound to Halo-tag beads [Magne® HaloTag® Beads, 20% Slurry; Cat #G7281]. […] After incubation, the beads were washed three times with 1 ml of Lysis buffer containing 500 mM NaCl and once with 0.5 ml of 10 mM Tris/HCl pH 8.0. […] The eluate is heated at 75° C. for 5 min and analysed by immuno-blotting using an anti-K63 linkage specific antibody (http://www.abcam.com/ubiquitin-linkage-specific-k63-epr8590-448-antibody-ab179434.html).
Pure neuronal cultures derived from human iPS cells were treated with DMSO, DES-2877, DES-4114 and #32 at 5 μM for 12 hours. […] Ubiquitylation site identification by mass spectrometry was performed as described Kim et al., (Systematic and quantitative assessment of the ubiquitin-modified proteome. Mol Cell. 2011; 44:325-340). and Sarraf et al., (Landscape of the PARKIN-dependent ubiquitylome in response to mitochondrial depolarization. Nature. 2013; 496:372-376).

Data set [4] deals with K63 linkages in human HEK-293 cells. The experiment in a line: Ubiquitin chain linkages in HEK-293 cells. The class given is cell-based. The note with it: 5 μM for 12 hours, FIG. 13B. As for the experimental part:
as §2, §3
The avidity based K63 linkage sensor protein was based on Sims et. al, 2012. Briefly, avidity based K63 sensor Halo-fusion protein was expressed in an E. coli expression vector and covalently bound to Halo-tag beads [Magne® HaloTag® Beads, 20% Slurry; Cat #G7281]. […] The eluate is heated at 75° C. for 5 min and analysed by immuno-blotting using an anti-K63 linkage specific antibody (http://www.abcam.com/ubiquitin-linkage-specific-k63-epr8590-448-antibody-ab179434.html). […]

In the case of `COc1cc(Cl)cc(/C=N/Nc2nc(Nc3ccc(C)cc3Br)nc(N3CCOCC3)n2)c1O` [DES-4114], the “accumulation of CPY trafficking intermediates en route to the vacuole” value in the data set with Carboxypeptidase Y (CPY) is on record as “increase”. In the data set on WT control yeast strain, the “toxicity on WT control yeast strain (in words)” value is given as “least toxic among active analogs”. In addition, the “polyubiquitinated Sna3-GFP” value in the data set with Sna3-GFP was “increase”. Besides, the “rescue of aSyn toxicity in yeast (in words)” value in data set [1] was “most effective”. In addition, in data set [2], the “morphology: vesicular intermediates in yeast cells” value is “accumulation of vesicular intermediates”. Also, the “K63 linkages in iPS derived human neurons” value in data set [3] is “modest increase”. Further, the “K63 linkages in human HEK-293 cells” value in data set [4] is reported as “modest increase”.
